Reference: patent US12187720B2, “Compounds for treatment of cancer” (ONCTERNAL THERAPEUTICS, INC., priority 2010, dated 2025)
Values after ≈ are worked out from the molar mass of the structure shown. Structures can show the parent of a compound that is named as a salt. Where two headings read alike, the source gives them in different places. One block for each compound: values may come before it.

Experiments:
A375 = assay: SRB cytotoxicity assay, A375 human melanoma cells; format: cell-based; details: read-out: IC50 ± SEM A375
Bovine brain tubulin = assay: In vitro tubulin polymerization assay (bovine brain tubulin); format: biochemical; details: 10 μM, 20 min incubation, versus vehicle
[1] = Aqueous solubility, Multiscreen Solubility Filter Plate with LC-MS/MS (PBS pH 7.4); format: physicochemical; details: for aqueous solubility: PBS pH 7.4
WM-164 = assay: SRB cytotoxicity assay, WM-164 human melanoma cells; format: cell-based; details: Homo sapiens
[2] = tested on: melanoma and prostate cancer cell lines; assay: SRB cytotoxicity, summary or average over melanoma and prostate cancer cell lines; format: cell-based; details: average of all seven cell lines
[3] = Metabolic stability in mouse liver microsomes; format: in vitro ADME; details: mouse, liver microsomes, pH 7.4, Table 20; read-out: Half life in Mouse liver microsome
[4] = Metabolic stability in rat liver microsomes; format: in vitro ADME; details: rat, liver microsomes, pH 7.4; Table 20; read-out: Half life in Rat liver microsome
[5] = Metabolic stability in dog liver microsomes; format: in vitro ADME; details: dog, dog liver microsomes, pH 7.4; Table 20; read-out: Half life in Dog liver microsome
in vivo [6] = details: female, Sprague-Dawley, rat, plasma
in vivo [7] = details: male, ICR, mouse, plasma, po, 20 mg/kg
[8] = Metabolic stability in human liver microsomes; details: human, liver microsomes, pH 7.4
[9] = Water solubility, 48 h shaking in water, LC-MS; format: physicochemical
Experimental: Determination of water solubility. […] The suspension was centrifuged at 10,000 rpm for 10 min and filtered on 0.22 μm filter. Concentrations of each compound were measured by LC-MS, consisting of an HP S1100 HPLC instrument (Agilent, Foster ceity, CA) and a Bruker ESQUIRE MS detector with electrospray/ion trap instrument in positive ion mode (Bruker, Fremont, CA). For HPLC, a reverse phase Nova-pak C18 column (150 mm×3.9 mm, Waters, Milford, MA) was used. The mobile phase was composed of 20:80 v/v water/acetonitrile. […] The concentration of each compound was calculated by MS peak area according to the following calibration equation: y=1.3295x+114.24 (R^2=1.00). […] The amount (ng) in each injection was plotted again its relative mass peak area to generate the standard curve in FIG. 17.

DU 145 = assay: SRB cytotoxicity assay, DU 145 prostate cancer cells; format: cell-based; details: Homo sapiens, read-out: inhibitory effects DU145
Text: (§1) Cells were stained with SRB solution.

PC-3 = assay: SRB cytotoxicity assay, PC-3 prostate cancer cells; format: cell-based, human; details: Homo sapiens, PC-3, read-out: inhibitory effects PC3
Text: as §1

LNCaP = assay: SRB cytotoxicity assay, LNCaP prostate cancer cells; format: cell-based, human; details: Homo sapiens, LNCaP
Text: as §1

PPC-1 = assay: SRB cytotoxicity assay, PPC-1 prostate cancer cells; format: cell-based, human; details: Homo sapiens, PPC-1; Table 13B; read-out: inhibitory effects PPC1
Text: as §1

MDA-MB-435 = assay: SRB cytotoxicity assay, MDA-MB-435 parental melanoma cells; format: cell-based; details: Homo sapiens, read-out: IC50 ± SEM MDA-MB-435
MDA-MB-435/LCCMDR1 = assay: SRB cytotoxicity assay, multidrug-resistant MDA-MB-435/LCCMDR1 melanoma cells; format: cell-based, human; details: Homo sapiens, read-out: IC50 ± SEM MDA-MB-435/LCC6MDR1
DU145/TXR = assay: SRB growth inhibition, paclitaxel-resistant DU145/TXR cells; format: cell-based; details: Homo sapiens, DU-145; Table 13A; read-out: inhibitory effects DU145/TXR
WM-164 melanoma cells = assay: Microtubule imaging (immunofluorescence) in WM-164 melanoma cells; format: cell-based, human; details: 18 h
Text: Primary antibody for tubulin and fluorescence-labeled secondary antibody were subsequently added to the cells. Cell nuclei were stained by DAPI. Whole Cell Stain Green was also applied to all cells. All images were acquired with an Olympus IX71 inverted fluorescence microscope (Olympus Corp., Tokyo, Japan) with overlays from separate images of tubulin (red), nuclei (blue), and whole cells (green).

PC-3/TxR tumors = details: for tumor growth inhibition (TGI): day 1 and 9
[10] = Brain penetration (brain and plasma concentrations) in nude mice; details: IP 10 mpk, mean ± SD
[11] = Table 13B, read-out: inhibitory effects LNCaP
[12] = Table 13A, read-out: inhibitory effects LNCaP
[13] = PC-3/TxR xenograft, IV 10 mpk, day 1 and 9, end point day 19

Compound: 5-Phenyl-2-(3,4,5-trimethoxybenzyl)-1H-imidazole and 4-phenyl-2-(3,4,5-trimethoxybenzyl)-1H-imidazole [102a]
IC50 (A375; Table 14C): 10200 ± 392 nM

Compound: COc1cc(C(=O)c2cccc(-c3ccccc3)n2)cc(OC)c1OC [1c, (6-Phenylpyridin-2-yl)(3,4,5-trimethoxyphenyl)methanone]
inhibition of tubulin polymerization (Bovine brain tubulin): 64%

Compound: COc1cc(C(=O)c2csc(-c3ccc(CN)cc3)n2)cc(OC)c1OC [2r, (2-(4-(Aminomethyl)phenyl)thiazol-4-yl)(3,4,5-trimethoxyphenyl)methanone hydrochloride]
increase of solubility (fold) ([1]; HCl salt versus 1h): over 35 fold

Compound: COc1cc(C(=O)c2csc(Nc3ccccc3)n2)cc(OC)c1OC [5a, (2-(phenylamino)thiazol-4-yl)(3,4,5-trimethoxyphenyl)methanone]
aqueous solubility [1]: 15 µg/mL (≈ 40.5 µM)

Compound: COc1cc(C(=O)c2csc(Nc3ccc(F)cc3)n2)cc(OC)c1OC [5c, (2-(p-fluorophenylamino)thiazol-4-yl)(3,4,5-trimethoxyphenyl)methanone]
aqueous solubility [1]: 19 µg/mL (≈ 48.9 µM)

Compound: COc1ccc(-c2nc(C(=O)c3ccc(F)cc3)cn2S(=O)(=O)c2ccccc2)cc1 [11cb, (4-fluorophenyl)(2-(4-methoxyphenyl)-1-(phenylsulfonyl)-1H-imidazol-4-yl)methanone]
IC50 (WM-164; WM164, 48 h, Table 13, 48 h, read-out: IC50 ± SEM WM164 (converted)): 43 nM
IC50 [2]: 43 nM

Compound: COc1cc(C(=O)c2c[nH]c(-c3ccc(Cl)cc3)n2)cc(OC)c1OC [12fa, (2-(4-chlorophenyl)-1H-imidazol-4-yl)(3,4,5-trimethoxyphenyl)methanone]
IC50 [2]: 43 nM
half-life at 0.5 μM [3]: 23 min
half-life at 0.5 μM [4]: 46 min
half-life at 0.5 μM [5]: 26 min
bioavailability (in vivo [6]; oral): 35%
bioavailability (in vivo [6]; po, 10 mg/kg): 35%
bioavailability (in vivo [7]): 62%
half-life at 0.5 μM [8]: 56 min

Compound: COc1cc(C(=O)c2c[nH]c(-c3ccc(N(C)C)cc3)n2)cc(OC)c1OC [12ga, (2-(4-(dimethylamino)phenyl)-1H-imidazol-4-yl)(3,4,5-trimethoxyphenyl)methanone]
IC50 [2]: 131 nM
water solubility, times greater than thiazole counterpart [9]: about 200 times
solubility at 48 h ([9]; thermodynamic from solid, water, 48 h, RT): 13 µg/mL (≈ 34.1 µM)

Compound: CN(C)c1ccc(-c2nc(C(=O)c3ccc(F)cc3)c[nH]2)cc1 [12gb, (2-(4-(dimethylamino)phenyl)-1H-imidazol-4-yl)(4-fluorophenyl)methanone]
IC50 (A375; Homo sapiens, A-375, 48 h, Table 12, 48 h): 56 ± 7 nM
IC50 (WM-164; WM164, 48 h, Table 12, 48 h, read-out: IC50 ± SEM WM164 (converted)): 62 ± 8 nM

Compound: O=C(c1ccc(F)cc1)c1c[nH]c(-c2ccc(O)cc2)n1 [12kb]
IC50 (A375; Table 12, 48 h): 10000 nM

aqueous solubility [1]: 3.8 µg/mL (≈ 9.63 µM)
Compound: COc1cc(C(=O)c2csc(-c3ccc4[nH]ccc4c3)n2)cc(OC)c1OC [66a]

Compound: O=C(c1ccccc1)c1nc(-c2ccccc2)c[nH]1 [70aa, phenyl-(4-phenyl-1H-imidazol-2-yl)methanone]
IC50 (DU 145; Table 13B): > 50000 nM
IC50 (PC-3; Table 13B): > 50000 nM
IC50 (LNCaP; [11]): > 50000 nM
IC50 (PPC-1): > 50000 nM
IC50 (MDA-MB-435; Table 14D): > 50000 nM
IC50 (MDA-MB-435/LCCMDR1; Table 14D): > 50000 nM

IC50 (DU145/TXR): 63 nM
Compound: COc1cc(C(=O)c2nc(-c3ccc(Br)cc3)c[nH]2)cc(OC)c1OC [70d, (4-(4-bromophenyl)-1H-imidazol-2-yl)(3,4,5-trimethoxyphenyl)methanone]
IC50 (DU 145; Table 13A): 66 nM
IC50 (PC-3; Table 13A): 33 nM
IC50 (LNCaP; [12]): 15 nM

IC50 (DU145/TXR): 21 nM
Compound: COc1cc(C(=O)c2nc(-c3ccc(C)cc3)c[nH]2)cc(OC)c1OC [70f, (4-p-tolyl-1H-imidazol-2-yl)(3,4,5-trimethoxyphenyl)methanone]
IC50 (LNCaP; [12]): 13 nM

Compound: COc1cc(C(=O)c2nc(-c3cc(OC)c(OC)c(OC)c3)c[nH]2)cc(OC)c1OC [70q, 3,4,5-trimethoxyphenyl-(4-(3,4,5-trimethoxyphenyl)-1H-imidazol-2-yl)methanone]
IC50 (DU 145; Table 13B): > 50000 nM
IC50 (PC-3; Table 13B): > 50000 nM
IC50 (LNCaP; [11]): > 50000 nM
IC50 (PPC-1): > 50000 nM
IC50 (MDA-MB-435; Table 14D): 149 nM
IC50 (MDA-MB-435/LCCMDR1; Table 14D): 211 nM

Compound: COc1cc(Cc2nc(-c3ccccc3)c(C)[nH]2)cc(OC)c1OC [102b, 5-methyl-4-phenyl-2-(3,4,5-trimethoxybenzyl)-1H-imidazole]
IC50 (A375; Homo sapiens, A-375, Table 14C): > 50000 nM

Compound: CCc1[nH]c(Cc2cc(OC)c(OC)c(OC)c2)nc1-c1ccccc1 [102c, 5-ethyl-4-phenyl-2-(3,4,5-trimethoxybenzyl)-1H-imidazole]
IC50 (MDA-MB-435; Table 14C): > 50000 nM
IC50 (MDA-MB-435/LCCMDR1; Table 14C): > 50000 nM

Compound: CCCc1[nH]c(Cc2cc(OC)c(OC)c(OC)c2)nc1-c1ccccc1 [102d, 4-phenyl-5-propyl-2-(3,4,5-trimethoxybenzyl)-1H-imidazole]
IC50 (MDA-MB-435; Table 14C): 11000 nM
IC50 (MDA-MB-435/LCCMDR1; Table 14C): 15900 nM

Compound: COc1ccc(S(=O)(=O)Nc2cccnc2Nc2ccc(O)cc2)cc1 [ABT-751, reference compound]
effect on microtubules (WM-164 melanoma cells): microtubule fragmentation

Compound: COc1cc(C(=O)c2csc(-c3ccccc3)n2)cc(OC)c1O [compound 34]
IC50 (WM-164; WM164, Table 6A, read-out: IC50 WM164): > 10000 nM
IC50 (LNCaP; Table 6A, read-out: IC50 LNCaP): > 10000 nM

water solubility ([9]; water, 48 h, RT): 0.072 µg/mL (≈ 0.181 µM)
Compound: COc1cc(C(=O)c2csc(-c3ccc(N(C)C)cc3)n2)cc(OC)c1OC [corresponding thiazole analog]

Compound: CC(=O)O[C@@]12CO[C@@H]1C[C@H](O)[C@@]1(C)C(=O)[C@H](O)C3=C(C)[C@@H](OC(=O)[C@H](O)[C@@H](NC(=O)OC(C)(C)C)c4ccccc4)C[C@@](O)([C@@H](OC(=O)c4ccccc4)[C@H]21)C3(C)C [docetaxel, Docetaxel]
TGI (PC-3/TxR tumors; [13]): 14%
Tumor size End (PC-3/TxR tumors; [13]): 1774 ± 183 mm^3
TGI (PC-3/TxR tumors; PC-3/TxR xenograft, IV 20 mpk, day 1 and 9, end point day 19): 56%
tumor growth inhibition (TGI) (PC-3/TxR tumors; i.v. 10 mg/kg): 14%
tumor growth inhibition (TGI) (PC-3/TxR tumors; i.v. 20 mg/kg): 56%
Brain ([10]; 1 hr): 33 ± 14 ng/mL
Plasma ([10]; 1 hr): 768 ± 92 ng/mL
Brain ([10]; 4 hr): 20 ± 9 ng/mL
Plasma ([10]; 4 hr): 345 ± 94 ng/mL
